Patent publication US20250098679A1, “HERBICIDAL PYRIDONE DERIVATIVES” (SYNGENTA CROP PROTECTION AG, priority 2021, published 2025)

Tests used:
Format in all cases: in vivo
Settings in all cases: evaluated after 13 days
[1] = tested on: Setaria faberi (SETFA); assay: Pre-emergence Test, Setaria faberi (SETFA)
[2] = tested on: Echinochloa crus-galli (ECHCG); assay: Pre-emergence Test, Echinochloa crus-galli (ECHCG)
[3] = tested on: Zea mays (ZEAMX); assay: Pre-emergence Test, Zea mays (ZEAMX)
[4] = tested on: Ipomoea hederacea (IPOHE); assay: Pre-emergence Test, Ipomoea hederacea (IPOHE)
[5] = tested on: Amaranthus palmeri (AMAPA); assay: Pre-emergence Test, Amaranthus palmeri (AMAPA)
[6] = tested on: Amaranthus retoflexus (AMARE); assay: Pre-emergence Test, Amaranthus retoflexus (AMARE)
[7] = tested on: Setaria faberi (SETFA); assay: Post-emergence Test, Setaria faberi (SETFA); design: key to percentage damage caused to the plant, SETFA (five-point scale): 5=81-100%, 4=61-80%, 3=41-60%, 2=21-40%, 1=0-20% damage
In short: (§1)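 Application was a spray of acetone/water (50:50) with 0.5% Tween 20 onto pots of test species sown in standard soil. Unless otherwise stated, the rate was 1000 g/ha. After 13 days under glasshouse conditions (24/16 °C, 65% humidity), injury was scored from 1 (0-20%) to 5 (81-100%).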

[8] = tested on: Echinochloa crus-galli (ECHCG); assay: Post-emergence Test, Echinochloa crus-galli (ECHCG); design: key to percentage damage caused to the plant, ECHCG (five-point scale): 5=81-100%, 4=61-80%, 3=41-60%, 2=21-40%, 1=0-20% damage
In short: as §1

[9] = tested on: Zea mays (ZEAMX); assay: Post-emergence Test, Zea mays (ZEAMX); design: key to percentage damage caused to the plant, ZEAMX (five-point scale): 5=81-100%, 4=61-80%, 3=41-60%, 2=21-40%, 1=0-20% damage
In short: as §1

[10] = tested on: Ipomoea hederacea (IPOHE); assay: Post-emergence Test, Ipomoea hederacea (IPOHE); design: key to percentage damage caused to the plant, IPOHE (five-point scale): 5=81-100%, 4=61-80%, 3=41-60%, 2=21-40%, 1=0-20% damage
In short: as §1

[11] = tested on: Amaranthus palmeri (AMAPA); assay: Post-emergence Test, Amaranthus palmeri (AMAPA); design: key: 5=81-100%, 4=61-80%, 3=41-60%, 2=21-40%, 1=0-20% damage
In short: as §1

[12] = tested on: Amaranthus retoflexus (AMARE); assay: Post-emergence Test, Amaranthus retoflexus (AMARE); design: key to percentage damage caused to the plant, AMARE (five-point scale): 5=81-100%, 4=61-80%, 3=41-60%, 2=21-40%, 1=0-20% damage
In short: as §1

| Structure (SMILES) | Pre-emergence Test SETFA, percentage damage caused to the plant (five-point scale) ([1]; 250 g/Ha (*)) | Pre-emergence Test SETFA, percentage damage caused to the plant (five-point scale) ([1]; 1000 g/ha) | Pre-emergence Test ECHCG, percentage damage caused to the plant (five-point scale) ([2]; 250 g/Ha (*)) | Pre-emergence Test ECHCG, percentage damage caused to the plant (five-point scale) ([2]; 1000 g/ha) | Pre-emergence Test ZEAMX, percentage damage caused to the plant (five-point scale) ([3]; 1000 g/ha) | Pre-emergence Test IPOHE, percentage damage caused to the plant (five-point scale) ([4]; 1000 g/ha) | Pre-emergence Test AMAPA, percentage damage caused to the plant (five-point scale) ([5]; 1000 g/ha) | Pre-emergence Test AMARE, percentage damage caused to the plant (five-point scale) ([6]; 1000 g/ha) | percentage damage caused to the plant, SETFA (five-point scale) ([7]; 250 g/Ha) | percentage damage caused to the plant, SETFA (five-point scale) ([7]; 1000 g/ha) | percentage damage caused to the plant, ECHCG (five-point scale) ([8]; 250 g/Ha) | percentage damage caused to the plant, ECHCG (five-point scale) ([8]; 1000 g/ha) | percentage damage caused to the plant, ZEAMX (five-point scale) ([9]; 250 g/Ha) | percentage damage caused to the plant, ZEAMX (five-point scale) ([9]; 1000 g/ha) | percentage damage caused to the plant, IPOHE (five-point scale) ([10]; 250 g/Ha) | percentage damage caused to the plant, IPOHE (five-point scale) ([10]; 1000 g/ha) | percentage damage caused to the plant, AMAPA (five-point scale) ([11]; 250 g/Ha) | percentage damage caused to the plant, AMAPA (five-point scale) ([11]; 1000 g/ha) | percentage damage caused to the plant, AMARE (five-point scale) ([12]; 250 g/Ha) | percentage damage caused to the plant, AMARE (five-point scale) ([12]; 1000 g/ha) | further results |
| --- | --- | --- | --- | --- | --- | --- | --- | --- | --- | --- | --- | --- | --- | --- | --- | --- | --- | --- | --- | --- | --- |
| CCn1c(Cn2cncc2C(F)(F)F)cc(=O)c(C(=O)O)c1-c1ccc(Cl)c(Cl)c1 [Compound 16, 2-(3,4-dichlorophenyl)-1-ethyl-4-oxo-6-[[5-(trifluoromethyl)imidazol-1-yl]methyl]pyridine-3-carboxylic acid] | 0 | 1 (1=0-20%) | 1 (1=0-20%) | 4 (4=61-80%) | 0 | 0 | 5 (5=81-100%) | 4 (4=61-80%) | 2 (2=21-40%) | 5 (5=81-100%) | 2 (2=21-40%) | 4 (4=61-80%) | 0 | 4 (4=61-80%) | 2 (2=21-40%) | 5 (5=81-100%) | 4 (4=61-80%) | 5 (5=81-100%) | 4 (4=61-80%) | 1 (1=0-20%) | Pre-emergence Test ZEAMX, percentage damage caused to the plant (five-point scale) ([3]; 250 g/Ha (*)): 0; Pre-emergence Test IPOHE, percentage damage caused to the plant (five-point scale) ([4]; 250 g/Ha (*)): 0; Pre-emergence Test AMAPA, percentage damage caused to the plant (five-point scale) ([5]; 250 g/Ha (*)): 3 (3=41-60%); Pre-emergence Test AMARE, percentage damage caused to the plant (five-point scale) ([6]; 250 g/Ha (*)): 1 (1=0-20%) |
| COCCn1c(Cn2ccc(Cl)n2)cc(=O)c(C(=O)O)c1-c1ccc(Cl)c(Cl)c1 [Compound 171, 6-[(3-chloropyrazol-1-yl)methyl]-2-(3,4-dichlorophenyl)-1-(2-methoxyethyl)-4-oxo-pyridine-3-carboxylic acid] |  | 4 (4=61-80%) |  | 1 (1=0-20%) | 1 (1=0-20%) | 0 | 0 | 1 (1=0-20%) | 0 | 3 (3=41-60%) | 1 (1=0-20%) | 3 (3=41-60%) | 1 (1=0-20%) | 1 (1=0-20%) | 1 (1=0-20%) | 1 (1=0-20%) | 0 | 0 | 0 | 0 |  |
| CCn1c(Cn2ccc(C(F)(F)F)n2)cc(=O)c(C(=O)OC)c1-c1ccc(Cl)cc1 [Compound 22, methyl 2-(4-chlorophenyl)-1-ethyl-4-oxo-6-[[3-(trifluoromethyl)pyrazol-1-yl]methyl]pyridine-3-carboxylate] | 4 (4=61-80%) | 4 (4=61-80%) | 1 (1=0-20%) | 3 (3=41-60%) | 0 | 0 | 0 | 0 | 3 (3=41-60%) | 3 (3=41-60%) | 0 | 3 (3=41-60%) | 0 | 1 (1=0-20%) | 1 (1=0-20%) | 2 (2=21-40%) | 1 (1=0-20%) | 1 (1=0-20%) | 1 (1=0-20%) | 1 (1=0-20%) | Pre-emergence Test ZEAMX, percentage damage caused to the plant (five-point scale) ([3]; 250 g/Ha (*)): 0; Pre-emergence Test IPOHE, percentage damage caused to the plant (five-point scale) ([4]; 250 g/Ha (*)): 0; Pre-emergence Test AMAPA, percentage damage caused to the plant (five-point scale) ([5]; 250 g/Ha (*)): 0; Pre-emergence Test AMARE, percentage damage caused to the plant (five-point scale) ([6]; 250 g/Ha (*)): 0 |
